Test results reported in ChEMBL document CHEMBL3351756, “Synthesis and evaluation of the antiplasmodial activity of novel indeno[2,1-c]quinoline derivatives” (Bioorg Med Chem, 2014).
≈ marks a conversion by molar mass, not a printed value.

What was measured:
[1] = Selectivity index, ratio of CC50 for HMEC1 to IC50 for chloroquine-sensitive Plasmodium falciparum 3D7; assay type: functional
[2] = Selectivity index, ratio of CC50 for HMEC1 to IC50 for chloroquine-sensitive Plasmodium falciparum D10; assay type: functional
Plasmodium falciparum [3] = assay: Antimalarial activity against chloroquine-resistant Plasmodium falciparum W2 infected in human type A-positive red blood cells assessed as growth inhibition after 72 hrs by spectrophotometrically; assay type: functional, organism-based; conditions: W2, 72 h
Plasmodium falciparum [4] = assay: Antimalarial activity against chloroquine-sensitive Plasmodium falciparum 3D7 infected in human type A-positive red blood cells assessed as growth inhibition after 72 hrs by spectrophotometrically; assay type: functional, organism-based; conditions: 3D7, 72 h
[5] = Cytotoxicity against HMEC1 assessed as cell growth inhibition after 72 hrs by MTT assay; parameters: species or system HMEC-1; conditions: human, HMEC1 cells
Plasmodium falciparum [6] = assay: Antimalarial activity against chloroquine-sensitive Plasmodium falciparum D10 infected in human type A-positive red blood cells assessed as growth inhibition after 72 hrs by spectrophotometrically; assay type: functional; conditions: D10, 72 h
[7] = Resistance index, ratio of IC50 for chloroquine-resistant Plasmodium falciparum W2 to IC50 for chloroquine-sensitive Plasmodium falciparum D10; assay type: functional
[8] = Resistance index, ratio of IC50 for chloroquine-resistant Plasmodium falciparum W2 to IC50 for chloroquine-sensitive Plasmodium falciparum 3D7; assay type: functional
[9] = Selectivity index, ratio of CC50 for HMEC1 to IC50 for chloroquine-resistant Plasmodium falciparum W2; assay type: functional
[10] = tested on: Mycobacterium tuberculosis; assay: Antimycobacterial activity against Mycobacterium tuberculosis; assay type: functional
Heme = assay: Binding affinity to heme assessed as inhibition of beta-hematin formation measured as compound IC50 to haemin molar ratio by BHIA assay
Plasmodium falciparum [11] = assay: Antimalarial activity against Plasmodium falciparum Dd2; assay type: functional
Plasmodium falciparum [12] = assay: Antimalarial activity against Plasmodium falciparum K1; assay type: functional, organism-based

| SMILES | Ratio CC50/IC50 [2] | IC50 (Plasmodium falciparum [3]) [nM] | IC50 (Plasmodium falciparum [4]) [nM] | CC50 at 72 h [5] [nM] | IC50 (Plasmodium falciparum [6]) [nM] | Ratio IC50 [7] | Ratio IC50 [8] | Ratio CC50/IC50 [9] | also measured |
| --- | --- | --- | --- | --- | --- | --- | --- | --- | --- |
| CN1CCN(CCNc2nc3ccc(Cl)cc3c3c2/C(=N/O)c2ccccc2-3)CC1 | 3.9 | 699 | 818 | 2580 | 667 | 1 | 0.8 | 3.7 | Ratio CC50/IC50 [1]: 3.2 |
| c1ccc2c(c1)-c1ccccc1C2C[C@@H]1CCCN2CCCC[C@H]12 | – | – | – | – | – | – | – | – | MIC [10]: 20 µM (≈ 6.35 µg/mL) |
| O/N=C1\c2ccccc2-c2c1c(NCCN1CCCCC1)nc1ccc(Cl)cc21 | 3.7 | 255 | 843 | 3120 | 850 | 0.3 | 0.3 | 12 | IC50 (Heme): > 4 molar ratio; Ratio CC50/IC50 [1]: 3.7 |
| O/N=C1\c2ccccc2-c2c1c(NCCN1CCCCC1)nc1cc(Cl)ccc21 | – | 244 | 530 | 2340 | – | – | 0.5 | 9.6 | Ratio CC50/IC50 [1]: 4.4 |
| O=C1c2ccccc2-c2c1c(NCCN1CCOCC1)nc1cc(Cl)ccc21 | – | 2550 | 6780 | – | 3760 | 0.7 | 0.4 | – | – |
| CCC(=O)O/N=C1\c2ccccc2-c2c1c(N1CCN(c3ccccn3)CC1)nc1ccc(Cl)cc21 | > 8.7 | 4160 | – | > 35000 | 4050 | 1 | – | > 8.4 | – |
| O=C1c2ccccc2-c2c1c(N1CCN(c3ccccn3)CC1)nc1ccc(Cl)cc21 | – | 6940 | – | – | 6080 | 1.1 | – | – | – |
| O=C1c2ccccc2-c2c1c(NCCN1CCCCC1)nc1ccc(Cl)cc21 | – | 626 | 1710 | – | – | – | 0.4 | – | – |
| CN1CCN(CCNc2nc3cc(Cl)ccc3c3c2C(=O)c2ccccc2-3)CC1 | 6.7 | 534 | – | 3120 | 468 | 1.1 | – | 5.9 | – |
| C(=C1c2ccccc2-c2ccccc21)[C@@H]1CCCN2CCCC[C@H]12 | – | – | – | – | – | – | – | – | MIC [10]: 0.49 µM (≈ 0.155 µg/mL) |
| COc1nc2ccc(Cl)cc2c2c1/C(=N/NC(=N)N)c1ccccc1-2 | 4.8 | 432 | – | 1720 | 360 | 1.2 | – | 4 | – |
| COc1nc2ccc(Cl)cc2c2c1/C(=N/N1CCN(C)CC1)c1ccccc1-2 | 1.2 | 3160 | – | 5280 | 4580 | 0.7 | – | 1.7 | – |
| O=C(c1ccc2[nH]ccc2c1)N1CCN(C2c3ccccc3-c3ccccc32)CC1 | – | – | 16900 | – | – | – | – | – | IC50 (Plasmodium falciparum [11]): 21600 nM |
| O/N=C1\c2ccccc2-c2c1c(N1CCN(c3ccccn3)CC1)nc1ccc(Cl)cc21 | > 5.8 | 6810 | – | > 38000 | 6610 | 1 | – | > 5.6 | – |
| Clc1ccc(/C(=C\[C@@H]2CCCN3CCCC[C@H]23)c2ccccc2)cc1Cl | – | – | – | – | – | – | – | – | IC50 (Plasmodium falciparum [12]): 400 nM |
| O/N=C1\c2ccccc2-c2c1c(NCCN1CCOCC1)nc1cc(Cl)ccc21 | – | 2730 | 5390 | – | 2840 | 1 | 0.5 | – | – |
| CN1CCN(CCNc2nc3cc(Cl)ccc3c3c2/C(=N/O)c2ccccc2-3)CC1 | 4.4 | 1060 | – | 2940 | 676 | 1.6 | – | 2.8 | – |
| O=C1c2ccccc2-c2c1c(NCCN1CCCCC1)nc1cc(Cl)ccc21 | – | 1170 | 2340 | – | – | – | 0.5 | – | – |
| O/N=C1\c2ccccc2-c2c1c(-n1ccnc1)nc1ccc(Cl)cc21 | – | > 5000 | – | – | > 5000 | – | – | – | – |
| Clc1ccc(C(=C[C@@H]2CCCN3CCCC[C@H]23)c2ccc(Cl)cc2)cc1 | – | – | – | – | – | – | – | – | MIC [10]: 1.6 µM (≈ 0.618 µg/mL) |
| Clc1cccc(/C(=C\[C@@H]2CCCN3CCCC[C@H]23)c2ccccc2)c1 | – | – | – | – | – | – | – | – | MIC [10]: 0.85 µM (≈ 0.299 µg/mL) |
| CCN(CC)CCCC(C)Nc1ccnc2cc(Cl)ccc12 (centres undefined) [CHLOROQUINE] | – | – | – | > 38000 | – | – | – | – | – |
| C(=C(c1ccccc1)c1ccccc1)[C@@H]1CCCN2CCCC[C@H]12 | – | – | – | – | – | – | – | – | MIC [10]: 3.9 µM (≈ 1.24 µg/mL) |
| CN1CCN(c2nc3ccc(Cl)cc3c3c2C(=O)c2ccccc2-3)CC1 | 2.5 | 1190 | – | 4030 | 1640 | 0.7 | – | 3.4 | – |
| CCCCN(CCCC)CC(O)c1cc(Cl)cc2c1-c1ccc(Cl)cc1/C2=C/c1ccc(Cl)cc1 (centres undefined) [LUMEFANTRINE] | – | 12 | 12 | – | 12 | – | – | – | – |
| CN1CCN(CCNc2nc3ccc(Cl)cc3c3c2C(=O)c2ccccc2-3)CC1 | 2.8 | 568 | 1030 | 1940 | 703 | 0.8 | 0.5 | 3.4 | Ratio CC50/IC50 [1]: 1.9 |
